Results from patent US9073961B2, “Substitution derivatives of N6 -benzyladenosine-5′-monophosphate, methods of preparation thereof, use thereof as medicaments, and therapeutic preparations containing these compounds” (UNIVERZITA PALACKEHO V OLOMOUCI, priority 2010, dated 2015).

Key:
[1] = tested on: HOS (human osteogenic sarcoma); assay: Calcein AM cytotoxicity assay, HOS; assay type: cell-based; details: 72 hours incubation
Excerpt: (§1) Because toxic compounds negatively influence metabolic processes in cells, many standard cytotoxicity assays are based on measurement of metabolisation rate of various artificial substrates. Resulting product is then quantified e.g. by means of spectrometry. The assays can be easily modified for use in 96-well plates. For evaluation of cytotoxic effect of the novel substituted 9-substituted cytokinin derivatives of this invention, a microtiter assay based on quantification of metabolisation of Calcein AM was used. The assay is widely used in drug screening programs and in chemosensitivity testing. In the living cells, Calcein AM is enzymatically hydrolysed and accumulation of resulting calcein is manifested by green fluorescence.
(§2) In the routine screening the following cell lines have been used: CEM (T-lymphoblastoid leukemia), HL-60 (promyelocytic leukemia), K-562 (human erythroleukemia), MCF-7 (breast carcinoma), HOS (human osteogenic sarcoma), and G-361 (human malignant melanoma). Normal human fibroblasts BJ were used as a control for routine screening of the compounds. The cells were kept in Nunc/Corning 80 cm^2 plastic bottles and grown in cell culture medium (DMEM containing 5 g/l glucose, 2 mM glutamine, 100 U/ml penicilline, 100 μg/ml streptomycine, 10% fetal bovine serum and sodium hydrogencarbonate), the compounds were prepared according to the procedure of the present invention.
(§3) The cell suspensions were prepared and diluted according to the particular cell type and the expected target cell density (2.500-30.000 cells per well based on cell growth characteristics) and pippetted (80 μl) into 96-well plates. Inoculates were allowed a pre-incubation period of 24 hours at 37° C. and 5% CO2 for stabilisation. Tested compound was added in total volume of 20 μl of water at time zero. Usually, test compound was evaluated at six 3-fold dilutions. In routine testing, the highest concentration tested was 166.7 μM. All drug concentrations were tested in triplicates. Incubations of cells with the test compounds lasted for 72 hours at 37° C., in 5% CO2 atmosphere and 100% humidity. At the end of incubation period Calcein AM in PBS was added into final concentration of 1 μg/ml. After another 1 hour of incubation fluorescence (FD) was measured with the Labsystem FIA Reader Fluoroscan Ascent (Microsystems). Tumor cell survival (TCS) was estimated using the following equation: […]=(FDdrug exposed well/FDcontrol well)×100%. The GI50 value, the drug concentration causing 50% reduction of esterase activity, was calculated from the obtained dose response curves (FIG. 1).
(§4) Cytoxicity of novel compounds was tested on panel of cell lines of different histogenetic and species origin (Table 3). […] The effective novel derivatives killed tumour cells in concentrations close to 0.1-50 μM.

[2] = tested on: cytokinin-dependent tobacco callus Nicotiana tabacum L. cv. Wisconsin 38; assay: Growth of cytokinin-dependent tobacco callus; assay type: cell-based; details: for Activity (%) [10^−5 mol · l^−1 KR = 100%]: at concentration with highest activity, relative to control cytokinin; for Concentration with highest activity: tobacco callus fresh weight after four weeks
Experimental: Cytokinin effect of newly prepared derivatives was tested using cytokinin-dependent tobacco callus. The cytokinin-dependent tobacco callus Nicotiana tabacum L. cv. Wisconsin 38 was maintained at 25° C. in darkness on modified MS medium, containing per 1 liter: 4 μmol of nicotinic acid, 2.4 μmol of pyridoxine hydrochloride, 1.2 μmol of thiamine, 26.6 μmol of glycine, 1.37 μmol of glutamine, 1.8 μmol of myo-inositol, 30 g of sucrose, 8 g of agar, 5.37 μmol of NAA and 0.5 μmol of the compound tested. Subcultivation was carried out every three weeks. Fourteen days before the bioassay, the callus tissue was transferred to the media without 6-benzylaminopurine. The biological activity was determined from the increase of the fresh callus weight after four weeks of cultivation. Five replicates were prepared for each concentration of the compound tested and the entire test was repeated twice. […] The compounds to be tested were dissolved in dimethylsulfoxide (DMSO) and the solution brought up to 10^−3 M with distilled water. […] The stimulatory activity was calculated from the dose-dependent fresh weight callus growth curves.
From the obtained data, the concentration with the highest activity was selected for each compound tested. Relative activity of the compound at this concentration was calculated (Table 5). […]

MCF-7 (breast carcinoma) = assay: Calcein AM cytotoxicity assay, MCF7; assay type: cell-based; details: 72 hours incubation
Excerpt: as §1, §2, §3, §4

[3] = tested on: Normal human fibroblasts BJ; assay: Calcein AM cytotoxicity assay, BJ; assay type: cell-based; details: 72 hours incubation
Excerpt: as §1, §2, §3, §4

[4] = tested on: K-562 (human erythroleukemia); assay: Calcein AM cytotoxicity assay, K-562; assay type: cell-based
Excerpt: as §1, §2, §3, §4

[5] = tested on: CEM (T-lymphoblastoid leukemia); assay: Calcein AM cytotoxicity assay, CEM; assay type: cell-based; details: 72 hours incubation, Calcein AM
Excerpt: as §1, §2, §3, §4

[6] = tested on: HL-60 (promyelocytic leukemia); assay: Calcein AM cytotoxicity assay, HL60; assay type: cell-based, human
Excerpt: as §1, §2, §3, §4

[7] = tested on: G-361 (human malignant melanoma); assay: Calcein AM cytotoxicity assay, G-361; assay type: cell-based; details: 72 hours incubation
Excerpt: as §1, §2, §3, §4

Human lymphocytes = assay: Immunosuppressive activity, 3H-thymidine incorporation in concanavalin A activated lymphocytes; assay type: cell-based; details: 72 hours, [3H]-TdR incorporation, read-out: Human lymphocytes ED50
Excerpt: One of the most important parameters of specific cellular immunity is the proliferative response of lymphocytes to antigens or polyclonal mitogens. The majority of normal mammalian peripheral lymphocytes comprise resting cells. Antigens or nonspecific polyclonal mitogens have the capacity to activate lymphoid cells and this is accompanied by dramatic changes of intracellular metabolism (mitochondrial activity, protein synthesis, nucleic acids synthesis, formation of blastic cells and cellular proliferation). […] Variety of in vitro assays was developed to measure proliferative response of lymphocytes. The most commonly used is ^3H-thymidine incorporation method.
During cell proliferation, DNA has to be replicated before the cell is divided into two daughter cells. This close association between cell doublings and DNA synthesis is very attractive for assessing cell proliferation. If labelled DNA precursors are added to the cell culture, cells that are about to divide incorporate the labelled nucleotide into their DNA. Traditionally, those assays usually involve the use of radiolabelled nucleosides, particularly tritiated thymidine ([^3H]-TdR). The amount of [^3H]-TdR incorporated into the cellular DNA is quantified by liquid scintillation counting.
Human heparinized peripheral blood was obtained from healthy volunteers by cubital vein punction. The blood was diluted in PBS (1:3) and mononuclear cells were separated by centrifugation in Ficoll-Hypaque density gradient (Pharmacia, 1.077 g/ml) at 2200 rpm for 30 minutes. Following centrifugation, lymphocytes were washed in PBS and resuspended in cell culture medium (RMPI 1640, 2 mM glutamine, 100 U/ml penicillin, 100 μg/ml streptomycin, 10% fetal calf serum and sodium bicarbonate).
The cells were diluted at target density of 1.100.000 cells/ml and were added by pipette (180 μl) into 96-well microtiter plates. Four-fold dilutions of the intended test concentration were added at time zero in 20 μl aliquots to the microtiter plate wells. Usually, test compound was evaluated at six 4-fold dilutions. In routine testing, the highest well concentration was 266.7 μM. All drug concentrations were examined in duplicates. All wells with exception of unstimulated controls were activated with 50 μl of concanavalin A (25 μg/ml). Incubations of cells with test compounds lasted for 72 hours at 37° C., in 5% CO2 atmosphere and 100% humidity. At the end of incubation period, the cells were assayed by using the [^3H]-TdR:
Cell cultures were incubated with 0.5 μCi (20 μl of stock solution 500 μCi/ml) per well for 6 hours at 37° C. and 5% CO2. The automated cell harvester was used to lyse cells in water and adsorb the DNA onto glass-fiber filters in the format of microtiter plate. The DNA incorporated [^3H]-TdR was retained on the filter while unincorporated material passes through. The filters were dried at room temperature overnight, sealed into a sample bag with 10-12 ml of scintillant. The amount of [^3H]-TdR present in each filter (in cpm) was determined by scintillation counting in a Betaplate liquid scintillation counter. The effective dose of immunosuppressant (ED) was calculated using the following equation: ED=(CCPMdrug exposed well/mean CCPMcontrol wells)×100%. The ED50 value, the drug concentration inhibiting proliferation of 50% of lymphocytes, was calculated from the obtained dose response curves.
To evaluate immunosuppressive activity of substituted adenines, their ability to inhibit polyclonal mitogen induced proliferation of normal human lymphocytes was analyzed (Table 4). […] Effective immunosuppressive dose of new derivatives under in vitro conditions was close to 10-40 μM.

| EC50 (Human lymphocytes) | Structure (SMILES) | GI50 [1] | Activity (%) [10^−5 mol · l^−1 KR = 100%] [2] | Concentration with highest activity [2] | GI50 (MCF-7 (breast carcinoma)) | GI50 [3] | GI50 ([4]; 72 hours incubation) | GI50 [5] | GI50 ([6]; 72 hours incubation) | GI50 [7] | GI50 ([1]; Homo sapiens) | GI50 (MCF-7 (breast carcinoma); Homo sapiens) | GI50 ([3]; Homo sapiens, Fibroblast) | GI50 ([4]; Homo sapiens, K562, 72 hours incubation) | GI50 ([6]; Homo sapiens, HL-60, 72 hours incubation) | GI50 ([7]; Homo sapiens) |
| --- | --- | --- | --- | --- | --- | --- | --- | --- | --- | --- | --- | --- | --- | --- | --- | --- |
| 11.5 µM | O=P(O)(O)OC[C@H]1O[C@@H](n2cnc3c(NCc4cccc(F)c4)ncnc32)[C@H](O)[C@@H]1O [Compound 2, 6-(3-fluorobenzylamino)purine riboside-5′-monophosphate] | > 167 µM | 103 ± 6% | 10^−5 mol · l^−1 | 16.6 µM | > 167 µM | 7 µM | 4 µM | 0.92 µM | 15.7 µM |  |  |  |  |  |  |
|  | COc1cccc(CNc2ncnc3c2ncn3[C@@H]2O[C@H](COP(=O)(O)O)[C@@H](O)[C@H]2O)c1 [Compound 16, 6-(3-methoxybenzylamino)purine riboside-5′-monophosphate] | > 167 µM | 102 ± 1% | 10^−6 mol · l^−1 | > 167 µM | > 167 µM | > 167 µM | 7.6 µM | 4.9 µM | > 167 µM |  |  |  |  |  |  |
| 12.8 µM | O=P(O)(O)OC[C@H]1O[C@@H](n2cnc3c(NCc4cccc(O)c4)ncnc32)[C@H](O)[C@@H]1O [Compound 22, 6-(3-hydroxybenzylamino)purine riboside-5′-monophosphate] | > 167 µM |  |  | > 167 µM | > 167 µM | > 167 µM | 51.9 µM | 23.7 µM | > 167 µM |  |  |  |  |  |  |
|  | O=P(O)(O)OC[C@H]1O[C@@H](n2cnc3c(NCc4cc(F)ccc4O)ncnc32)[C@H](O)[C@@H]1O [Compound 48, 6-(2-hydroxy-5-fluorobenzylamino)purine riboside-5′-monophosphate] | 9.1 µM |  |  | 16 µM | 58.7 µM | 13.4 µM | 0.5 µM | 0.53 µM | 10.7 µM |  |  |  |  |  |  |
|  | COc1ccc(O)c(CNc2ncnc3c2ncn3[C@@H]2O[C@H](COP(=O)(O)O)[C@@H](O)[C@H]2O)c1 [Compound 29, 6-(2-hydroxy-5-methoxybenzylamino)purine riboside-5′-monophosphate] | 6.4 µM |  |  | 21 µM | 87.9 µM | 15.4 µM | 0.9 µM | 0.54 µM | 12.3 µM |  |  |  |  |  |  |
|  | O=P(O)(O)OC[C@H]1O[C@@H](n2cnc3c(NCc4ccc(O)cc4)ncnc32)[C@H](O)[C@@H]1O [Compound 23, 6-(4-hydroxybenzylamino)purine riboside-5′-monophosphate] | > 167 µM |  |  | > 167 µM | > 167 µM | > 167 µM | 39.7 µM | 9.5 µM | > 167 µM |  |  |  |  |  |  |
|  | Nc1ncnc2c1ncn2[C@@H]1O[C@H](CO)[C@@H](O)[C@H]1O [adenosine] |  |  |  |  |  |  | > 167 µM |  |  | > 167 µM | > 167 µM | > 167 µM | > 167 µM | > 167 µM | > 167 µM |
|  | O=P(O)(O)OC[C@H]1O[C@@H](n2cnc3c(NCc4cc(Cl)ccc4O)ncnc32)[C@H](O)[C@@H]1O [Compound 47, 6-(2-hydroxy-5-chlorobenzylamino)purine riboside-5′-monophosphate] | 10.6 µM |  |  | 18 µM | 63.4 µM | 15.7 µM | 0.6 µM | 0.47 µM | 12.5 µM |  |  |  |  |  |  |
|  | C/C(=C\CNc1ncnc2c1ncn2[C@@H]1O[C@H](CO)[C@@H](O)[C@H]1O)CO [zeatin riboside, reference compound] | > 167 µM |  |  | > 167 µM | > 167 µM | > 167 µM | > 167 µM | > 167 µM | > 167 µM |  |  |  |  |  |  |
|  | COc1ccccc1CNc1ncnc2c1ncn2[C@@H]1O[C@H](COP(=O)(O)O)[C@@H](O)[C@H]1O [Compound 15, 6-(2-methoxybenzylamino)purine riboside-5-monophosphate] | 21.2 µM | 108 ± 1% | 10^−5 mol · l^−1 | > 167 µM | > 167 µM | 11.2 µM | 3.2 µM | 2.3 µM | > 167 µM |  |  |  |  |  |  |
